Assay results taken from patent publication US12187709B2 (Genentech, Inc., priority 2021, dated 2025).

Experiments:
[1] = molecular target: c-Cbl (residues 47-435) (Homo sapiens (Human), UniProt P22681); assay: c-Cbl SPR assay; assay type: binding; conditions: 20° C.
In short: (§1)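 Protein captured at 1300-1500 RU; compounds run as 6-point 2-fold series in multi-cycle kinetics (60 s contact, 40 μl/min, 120-1200 s dissociation), fitted 1:1. For slow binders, kd came from chaser-compound occupancy over time, fixed in a single-cycle fit (5 concentrations, top 500 nM).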

[2] = molecular target: Cbl-b (Homo sapiens (Human), UniProt Q13191); assay: Cbl-b LCK Ub TR-FRET assay (Cbl-b Lck HTRF); assay type: biochemical; conditions: for IC50: Cbl-b LCK Ub TR-FRET; for fold-selectivity (Cbl-b over C-cbl) / (fold-selectivity) Cbl-b and C-Cbl Selectivity: ratio C-cbl Lck HTRF IC50 / Cbl-b Lck HTRF IC50
In short: (§2)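 Signal is read once the detection mix has stood 20 min at ambient temperature. Curves are anchored by DMSO as maximum and by omission of LCK as minimum.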

[3] = molecular target: c-Cbl (Homo sapiens (Human), UniProt P22681); assay: C-Cbl LCK Ub TR-FRET assay (C-cbl Lck HTRF); assay type: biochemical
In short: as §2

[4] = molecular target: Human Cbl-b (residues 40-426) (Homo sapiens (Human), UniProt Q13191); assay: Cbl-b SPR assay; assay type: binding; conditions: for Fold of selectivity: C-cbl SPR Kd vs Cbl-b SPR Kd; for Kd: SPR, 20° C.
In short: as §1

c-Cbl (residues 47-435), sequence (P22681 47-435): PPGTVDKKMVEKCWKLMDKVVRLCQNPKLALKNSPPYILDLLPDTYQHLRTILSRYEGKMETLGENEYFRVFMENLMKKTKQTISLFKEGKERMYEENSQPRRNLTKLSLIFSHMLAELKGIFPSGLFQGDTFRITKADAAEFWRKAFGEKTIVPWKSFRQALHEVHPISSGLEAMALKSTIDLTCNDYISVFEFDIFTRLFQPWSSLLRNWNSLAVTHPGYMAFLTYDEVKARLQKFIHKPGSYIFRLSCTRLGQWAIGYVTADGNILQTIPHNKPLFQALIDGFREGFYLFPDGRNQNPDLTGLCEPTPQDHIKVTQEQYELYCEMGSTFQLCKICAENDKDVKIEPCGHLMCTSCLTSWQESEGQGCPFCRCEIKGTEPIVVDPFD
c-Cbl, sequence (P22681 47-435): as above
Human Cbl-b (residues 40-426), sequence (Q13191 40-426): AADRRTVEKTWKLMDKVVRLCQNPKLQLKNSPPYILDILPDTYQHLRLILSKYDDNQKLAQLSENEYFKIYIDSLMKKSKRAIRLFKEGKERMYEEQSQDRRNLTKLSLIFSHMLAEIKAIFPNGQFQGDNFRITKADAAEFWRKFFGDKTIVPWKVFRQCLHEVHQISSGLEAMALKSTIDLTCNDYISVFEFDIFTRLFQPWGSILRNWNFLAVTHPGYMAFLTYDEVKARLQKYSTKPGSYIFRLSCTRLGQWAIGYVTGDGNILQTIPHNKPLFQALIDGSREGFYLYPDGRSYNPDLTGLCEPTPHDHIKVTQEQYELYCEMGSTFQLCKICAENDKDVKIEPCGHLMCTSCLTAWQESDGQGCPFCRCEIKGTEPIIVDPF
Cbl-b, sequence (Q13191 40-426): as above

SMILES | Kd [1] [nM] | IC50 [2] [nM] | fold-selectivity (Cbl-b over C-cbl) [2] | IC50 [3] [nM] | Fold of selectivity [4] [×] | Kd [4] [nM] | IC50 ([2]; Example 121) [nM] | (fold-selectivity) Cbl-b and C-Cbl Selectivity [2] [x]
CO[C@H]1C[C@](c2cc(NC(C)C)cc(N3Cc4c(cc(CNC5(C)CCC5)cc4C(F)(F)F)C3=O)c2)(c2nncn2C)C1 [Compound 215, 2-(3-(isopropylamino)-5-((1r,3r)-3-methoxy-1-(4-methyl-4H-1,2,4-triazol-3-yl)cyclobutyl)phenyl)-6-(((1-methylcyclobutyl)amino)methyl)-4-(trifluoromethyl)isoindolin-1-one] | 7 | 9.4 | 1.3x | 12 | 4.1 | 1.7 |  | 
CO[C@H]1C[C@](c2cccc(N3Cc4c(cc(CN[C@H](C)C5CCC5)cc4C(F)(F)F)C3=O)c2)(c2nncn2C)C1 [Compound 467] | 120 |  |  | 86 | 7.6 | 16 | 22 | 4.0
C[C@@H](NC1(C)CCC1)c1cc2c(c(C(F)F)c1)CN(c1cccc([C@H](c3nncn3C)C3COC3)c1)C2=O (single isomer, unassigned) [Compound 412] | 82 |  |  | 59 | 16 | 5.2 | 14 | 4.2
Cn1ccnc1[C@@H](c1cccc(N2Cc3c(cc(CNC4(C)CCC4)cc3C(F)(F)F)C2=O)c1)C1COC1 (single isomer, unassigned) [Compound 352] | 270 | 69 | 4.1x | 280 | 7.6 | 34 |  | 
CO[C@H]1C[C@@](c2cccc(N3Cc4ccc(CNC5(C)CCC5)cc4C3=O)c2)(c2nncn2C)C1 [Compound 448, 2-(3-((1s,3s)-3-methoxy-1-(4-methyl-4H-1,2,4-triazol-3-yl)cyclobutyl)phenyl)-6-(((1-methylcyclobutyl)amino)methyl)isoindolin-1-one] | 2500 |  |  | 3900 | 5.8 | 420 | 730 | 5.5
Cn1cnnc1C(c1cccc(N2Cc3c(cc(CNC4(C)CCC4)cc3C(F)(F)F)C2=O)c1)[C@H]1C[C@H](CC#N)C1 (single isomer, unassigned) [Compound 364] | 2.4 | 2.5 | 1.3x | 3.3 | 4.4 | 0.55 |  | 
Cn1cnnc1[C@]1(c2cccc(N3Cc4c(Cl)cc(CNC5(C)CCC5)cc4C3=O)c2)C[C@@H](Cl)C1 [Compound 451, 4-chloro-2-(3-((1r,3r)-3-chloro-1-(4-methyl-4H-1,2,4-triazol-3-yl)cyclobutyl)phenyl)-6-(((1-methylcyclobutyl)amino)-methyl)isoindolin-1-one] | 1.5 |  |  | 6.6 | 6.0 | 0.25 | 4.2 | 1.6
Cn1cnnc1C1(c2cccc(N3Cc4c(cc(CNC5(C)CCC5)cc4C(F)(F)F)C3=O)c2)CC(F)(F)C1 [Compound 61, 2-(3-(3,3-difluoro-1-(4-methyl-4H-1,2,4-triazol-3-yl)cyclobutyl)phenyl)-6-(((1-methylcyclobutyl)amino)methyl)-4-(trifluoromethyl)isoindolin-1-one] | 20 | 15 | (1.7x) | 25.5 | 5.2 | 3.7 |  | 
Cn1cnnc1[C@@](O)(c1cccc(N2Cc3c(cc(CNC4(C)CCC4)cc3C(F)(F)F)C2=O)c1)C(F)(F)F (single isomer, unassigned) [Compound 308] | 56 | 27 | 1.5x | 41 | 1.5 | 37 |  | 
Cn1cnnc1[C@H](c1cccc(N2Cc3c(Cl)cc(CNC4(C)CCC4)cc3C2=O)c1)[C@H]1C[C@@H](F)C1 (single isomer, unassigned) [Compound 319] | 53 | 12 | 3.5x | 41 | 8.0 | 6.4 |  | 
CO[C@H]1C[C@@](c2cc(N[C@@H](C)CC#N)cc(N3Cc4c(cc(CNC5(C)CCC5)cc4C(F)(F)F)C3=O)c2)(c2nncn2C)C1 (single isomer, unassigned) [Compound 233] | 150 | 40 | 5.0x | 200 | 7.1 | 21 |  | 
Cn1cnnc1[C@@H](c1cccc(N2Cc3c(cc([C@H](NC4(C)CCC4)C4CC4)cc3C(F)(F)F)C2=O)c1)C1COC1 (single isomer, unassigned) [Compound 431] | 1.3 |  |  | 5.8 | 3.1 | 0.4 | 5.3 | 1.1
CO[C@H]1C[C@](c2cccc(N3Cc4c(cc(CNCC5CC56CC6(F)F)cc4C(F)(F)F)C3=O)c2)(c2nncn2C)C1 (stereo partly drawn) [Compound 510] | 60 |  |  | 51 | 18 | 3.4 | 12 | 4.2
Cn1cnnc1[C@@H](c1cccc(N2Cc3c(cc(CNC4(C)CCC4)cc3C(F)(F)F)C2=O)c1)[C@H]1C[C@@H](C)C1 (single isomer, unassigned) [Compound 379] | 6 | 6.8 | 1.6x | 9.5 | 6.7 | 0.9 |  | 
CC[C@@](F)(c1cccc(N2Cc3c(cc(CNC4(C)CCC4)cc3C(F)(F)F)C2=O)c1)c1nncn1C (single isomer, unassigned) [Compound 394] | 1.4 | 4.6 | 0.8x | 3.8 | 2.4 | 0.65 |  | 
C[C@H](CC#N)Nc1cc(C2(c3nncn3C)CC3(COC3)C2)cc(N2Cc3c(cc(CNC4(C)CCC4)cc3C(F)(F)F)C2=O)n1 [Compound 192, (R)-3-((4-(6-(4-methyl-4H-1,2,4-triazol-3-yl)-2-oxaspiro[3.3]heptan-6-yl)-6-(6-(((1-methylcyclobutyl)amino)methyl)-1-oxo-4-(trifluoromethyl)isonidolin-2-yl)pyridin-2-yl)amino)butanenitrile] | 1.7 | 13 | 0.7x | 9.2 | 5.7 | 0.3 |  | 
CO[C@H]1C[C@](c2cc(NC3COC3)cc(N3Cc4c(cc(CNC5(C)CCC5)cc4C(F)(F)F)C3=O)c2)(c2nncn2C)C1 [Compound 234, 2-(3-((1r,3r)-3-methoxy-1-(4-methyl-4H-1,2,4-triazol-3-yl)cyclobutyl)-5-(oxetan-3-ylamino)phenyl)-6-(((1-methylcyclobutyl)amino)methyl)-4-(trifluoromethyl)isoindolin-1-one] | 76 | 25 | 5.6x | 140 | 10 | 7.4 |  | 
C=C[C@@H](C)Oc1cc(N2Cc3c(cc(CNC4(C)CCC4)cc3C(F)(F)F)C2=O)cc([C@]2(c3nncn3C)C[C@@H](OC)C2)c1 [Compound 213, 2-(3-((R)-but-3-en-2-yloxy)-5-((1s,3S)-3-methoxy-1-(4-methyl-4H-1,2,4-triazol-3-yl)cyclobutyl)phenyl)-6-(((1-methylcyclobutyl)amino)methyl)-4-(trifluoromethyl)isoindolin-1-one] | 300 | 240 | 1.9x | 440 | 1.8 | 160 |  | 
CO[C@H]1C[C@](c2cc(NC3CC3)cc(N3Cc4c(cc(CNC5(C)CCC5)cc4C(F)(F)F)C3=O)c2)(c2nncn2C)C1 [Compound 214, 2-(3-(cyclopropylamino)-5-((1r,3r)-3-methoxy-1-(4-methyl-4H-1,2,4-triazol-3-yl)cyclobutyl)phenyl)-6-(((1-methylcyclobutyl)amino)methyl)-4-(trifluoromethyl)isoindolin-1-one] | 4.2 | 9.3 | 0.97x | 9 | 4.7 | 0.9 |  | 
Cn1cnnc1[C@H](c1cccc(N2Cc3c(cc(CNC4(C)CCC4)cc3C(F)(F)F)C2=O)c1)C1CC(F)C1 (single isomer, unassigned) [Compound 127] | 4800 | 410 | 4.1x | 2000 | 13 | 360 |  | 
CC(C)[C@H]1CN(C)CCN1Cc1cc2c(c(C(F)F)c1)CN(c1cccc(C3(c4nncn4C)CC4(COC4)C3)c1)C2=O.O=CO.O=CO [Compound 198, (S)-4-(difluoromethyl)-6-((2-isopropyl-4-methylpiperazin-1-yl)methyl)-2-(3-(6-(4-methyl-4H-1,2,4-triazol-3-yl)-2-oxaspiro[3.3]heptan-6-yl)phenyl)isoindolin-1-one formate] | 120 | 46 | 4.4x | 200 | 5.1 | 29 |  | 
